Results: ChEMBL document CHEMBL3045441, “Microwave-assisted CAN-catalyzed solvent-free synthesis of N-allyl quinolone-based pyrano[4,3-b]chromene and benzopyrano[3,2-c]chromene derivatives and their antimicrobial activity” (2013)
Values after ≈ are worked out from the molar mass of the structure shown.

What was measured:
Assay type in all cases: functional
Pseudomonas aeruginosa = test: Antimicrobial activity against Pseudomonas aeruginosa MTCC 1688 assessed as growth inhibition after 24 hr by NCCLS broth microdilution method; details: MTCC 1688, 24 h
Escherichia coli = test: Antimicrobial activity against Escherichia coli MTCC 443 assessed as growth inhibition after 24 hr by NCCLS broth microdilution method; details: MTCC 443, 24 h
Streptococcus pyogenes = test: Antimicrobial activity against Streptococcus pyogenes MTCC 442 assessed as growth inhibition after 24 hr by NCCLS broth microdilution method; details: MTCC 442, 24 h
Staphylococcus aureus = test: Antimicrobial activity against Staphylococcus aureus MTCC 96 assessed as growth inhibition after 24 hr by NCCLS broth microdilution method; details: MTCC 96, 24 h
Aspergillus clavatus = test: Antimicrobial activity against Aspergillus clavatus MTCC 1323 assessed as growth inhibition after 48 hr by NCCLS broth microdilution method
Aspergillus niger = test: Antimicrobial activity against Aspergillus niger MTCC 282 assessed as growth inhibition after 48 hr by NCCLS broth microdilution method
Candida albicans = test: Antimicrobial activity against Candida albicans MTCC 227 assessed as growth inhibition after 48 hr by NCCLS broth microdilution method

| Compound | MIC (Pseudomonas aeruginosa) [µg/mL] | MIC (Escherichia coli) [µg/mL] | MIC (Streptococcus pyogenes) [µg/mL] | MIC (Staphylococcus aureus) [µg/mL] | MIC (Aspergillus clavatus; MTCC 1323, 48 h) [µg/mL] | MIC (Aspergillus niger; MTCC 282, 48 h) [µg/mL] | MIC (Candida albicans; MTCC 227, 48 h) [µg/mL] | MIC (Aspergillus clavatus) [µg/mL] | MIC (Aspergillus niger) [µg/mL] | MIC (Candida albicans) [µg/mL] |
| --- | --- | --- | --- | --- | --- | --- | --- | --- | --- | --- |
| O=C(N[C@H](CO)[C@H](O)c1ccc([N+](=O)[O-])cc1)C(Cl)Cl [CHLORAMPHENICOL] | 50 (≈ 155 µM) | 50 (≈ 155 µM) | 50 (≈ 155 µM) | 50 (≈ 155 µM) | – | – | – | – | – | – |
| C=CCn1c(=O)c(C2C3=C(CCCC3=O)Oc3cc(C)oc(=O)c32)cc2cc(OC)ccc21 (stereo not drawn) | 250 (≈ 561 µM) | 125 (≈ 281 µM) | 200 (≈ 449 µM) | 200 (≈ 449 µM) | 1000 (≈ 2240 µM) | 1000 (≈ 2240 µM) | 500 (≈ 1120 µM) | – | – | – |
| C=CCn1c(=O)c(C2C3=C(CC(C)(C)CC3=O)Oc3cc(C)oc(=O)c32)cc2cc(Cl)ccc21 (stereo not drawn) | 500 (≈ 1050 µM) | 250 (≈ 523 µM) | 125 (≈ 262 µM) | 125 (≈ 262 µM) | > 1000 | > 1000 | 1000 (≈ 2090 µM) | – | – | – |
| CC1(C)S[C@@H]2[C@H](NC(=O)[C@H](N)c3ccccc3)C(=O)N2[C@H]1C(=O)O [AMPICILLIN] | – | 100 (≈ 286 µM) | 100 (≈ 286 µM) | 250 (≈ 715 µM) | – | – | – | – | – | – |
| C=CCn1c(=O)c(C2C3=C(CCCC3=O)Oc3cc(C)oc(=O)c32)cc2cc(C)ccc21 (stereo not drawn) | 250 (≈ 582 µM) | 125 (≈ 291 µM) | 500 (≈ 1160 µM) | 500 (≈ 1160 µM) | 1000 (≈ 2330 µM) | 500 (≈ 1160 µM) | 1000 (≈ 2330 µM) | – | – | – |
| C=CCn1c(=O)c(C2C3=C(CCCC3=O)Oc3c2c(=O)oc2ccccc32)cc2cc(Cl)ccc21 (stereo not drawn) | 100 (≈ 206 µM) | 200 (≈ 412 µM) | 125 (≈ 257 µM) | 125 (≈ 257 µM) | 1000 (≈ 2060 µM) | 1000 (≈ 2060 µM) | 1000 (≈ 2060 µM) | – | – | – |
| O=C(O)c1cn(C2CC2)c2cc(N3CCNCC3)c(F)cc2c1=O [CIPROFLOXACIN] | – | 25 (≈ 75.4 µM) | 50 (≈ 151 µM) | 50 (≈ 151 µM) | – | – | – | – | – | – |
| C=CCn1c(=O)c(C2C3=C(CC(C)(C)CC3=O)Oc3c2c(=O)oc2ccccc32)cc2ccccc21 (stereo not drawn) | 250 (≈ 521 µM) | 500 (≈ 1040 µM) | 500 (≈ 1040 µM) | 250 (≈ 521 µM) | 1000 (≈ 2090 µM) | 1000 (≈ 2090 µM) | 250 (≈ 521 µM) | – | – | – |
| C=CCn1c(=O)c(C2C3=C(CCCC3=O)Oc3cc(C)oc(=O)c32)cc2ccccc21 (stereo not drawn) | 200 (≈ 481 µM) | 125 (≈ 301 µM) | 250 (≈ 602 µM) | 250 (≈ 602 µM) | 200 (≈ 481 µM) | 200 (≈ 481 µM) | 500 (≈ 1200 µM) | – | – | – |
| C=CCn1c(=O)c(C2C3=C(CCCC3=O)Oc3cc(C)oc(=O)c32)cc2cc(Cl)ccc21 (stereo not drawn) | 500 (≈ 1110 µM) | 500 (≈ 1110 µM) | 100 (≈ 222 µM) | 100 (≈ 222 µM) | 1000 (≈ 2220 µM) | 500 (≈ 1110 µM) | 1000 (≈ 2220 µM) | – | – | – |
| C=CCn1c(=O)c(C2C3=C(CCCC3=O)Oc3c2c(=O)oc2ccccc32)cc2cc(C)ccc21 (stereo not drawn) | 100 (≈ 215 µM) | 20 (≈ 43 µM) | 250 (≈ 537 µM) | 250 (≈ 537 µM) | 500 (≈ 1070 µM) | 500 (≈ 1070 µM) | 250 (≈ 537 µM) | – | – | – |
| C=CCn1c(=O)c(C2C3=C(CCCC3=O)Oc3c2c(=O)oc2ccccc32)cc2cc(OC)ccc21 (stereo not drawn) | 62.5 (≈ 130 µM) | 100 (≈ 208 µM) | 500 (≈ 1040 µM) | 62.5 (≈ 130 µM) | 1000 (≈ 2080 µM) | 1000 (≈ 2080 µM) | 500 (≈ 1040 µM) | – | – | – |
| C=CCn1c(=O)c(C2C3=C(CC(C)(C)CC3=O)Oc3c2c(=O)oc2ccccc32)cc2cc(Cl)ccc21 (stereo not drawn) | 100 (≈ 195 µM) | 100 (≈ 195 µM) | 100 (≈ 195 µM) | 62.5 (≈ 122 µM) | 1000 (≈ 1950 µM) | 1000 (≈ 1950 µM) | 1000 (≈ 1950 µM) | – | – | – |
| C=CCn1c(=O)c(C2C3=C(CC(C)(C)CC3=O)Oc3cc(C)oc(=O)c32)cc2cc(OC)ccc21 (stereo not drawn) | 500 (≈ 1060 µM) | 500 (≈ 1060 µM) | 250 (≈ 528 µM) | 250 (≈ 528 µM) | 1000 (≈ 2110 µM) | 1000 (≈ 2110 µM) | 500 (≈ 1060 µM) | – | – | – |
| C=CCn1c(=O)c(C2C3=C(CC(C)(C)CC3=O)Oc3cc(C)oc(=O)c32)cc2ccccc21 (stereo not drawn) | 62.5 (≈ 141 µM) | 100 (≈ 225 µM) | 250 (≈ 564 µM) | 500 (≈ 1130 µM) | 500 (≈ 1130 µM) | 500 (≈ 1130 µM) | 500 (≈ 1130 µM) | – | – | – |
| C=CCn1c(=O)c(C2C3=C(CC(C)(C)CC3=O)Oc3c2c(=O)oc2ccccc32)cc2cc(C)ccc21 (stereo not drawn) | 50 (≈ 101 µM) | 200 (≈ 405 µM) | 250 (≈ 507 µM) | 125 (≈ 253 µM) | 500 (≈ 1010 µM) | 500 (≈ 1010 µM) | 500 (≈ 1010 µM) | – | – | – |
| COC1=CC(=O)C[C@@H](C)[C@]12Oc1c(Cl)c(OC)cc(OC)c1C2=O [GRISEOFULVIN] | – | – | – | – | 100 (≈ 283 µM) | 100 (≈ 283 µM) | 500 (≈ 1420 µM) | – | – | – |
| NYSTATIN | – | – | – | – | – | – | – | 100 | 100 | 100 |
| C=CCn1c(=O)c(C2C3=C(CCCC3=O)Oc3c2c(=O)oc2ccccc32)cc2ccccc21 (stereo not drawn) | 100 (≈ 221 µM) | 62.5 (≈ 138 µM) | 200 (≈ 443 µM) | 200 (≈ 443 µM) | > 1000 | > 1000 | 500 (≈ 1110 µM) | – | – | – |
| C=CCn1c(=O)c(C2C3=C(CC(C)(C)CC3=O)Oc3c2c(=O)oc2ccccc32)cc2cc(OC)ccc21 (stereo not drawn) | 125 (≈ 245 µM) | 250 (≈ 491 µM) | 125 (≈ 245 µM) | 125 (≈ 245 µM) | > 1000 | > 1000 | 500 (≈ 981 µM) | – | – | – |
| C=CCn1c(=O)c(C2C3=C(CC(C)(C)CC3=O)Oc3cc(C)oc(=O)c32)cc2cc(C)ccc21 (stereo not drawn) | 125 (≈ 273 µM) | 500 (≈ 1090 µM) | 125 (≈ 273 µM) | 250 (≈ 546 µM) | 250 (≈ 546 µM) | 250 (≈ 546 µM) | 1000 (≈ 2190 µM) | – | – | – |
